Test results as given in patent US9085559B2, “Triazine-aryl-bis-indoles and process for preparation thereof” (COUNCIL OF SCIENTIFIC & INDUSTRIAL RESEARCH, priority 2010, dated 2015).
Converted amounts (≈) assume the structure as drawn.

System: adhesion of human neutrophils to the endothelial monolayer
Test: Neutrophil adhesion assay on TNF-alpha induced HUVECs
Format: cell-based
Details: HUVEC, HUVECs pretreated 2 h, TNF-α 6 h, adhesion 1 h at 37° C.
Method: FIG. 5. IICT-TA67 inhibits the adhesion of Neutrophils on TNF-alpha induced HUVECs. To study whether the inhibition of Intercellular Adhesion Molecule type 1 (ICAM-1) and Vascular Cell Adhesion Molecule type 1(VCAM-1) functionally correlates with the inhibition of adhesion of neutrophils to the endothelial monolayer, neutrophil adhesion assay was performed. For this, HUVECs were pretreated with various concentrations of IICT-TA67 for 2 hours followed by induction with TNF-α for 6 hours. Human blood neutrophils were added onto the endothelial cells monolayer and allowed to adhere for one hour at 37° C. The number of cells that remained adhered to the monolayer was estimated by measuring the peroxidase activity.
Neutrophils were isolated from peripheral blood of healthy individuals. Blood was collected in heparin solution (20 U/ml) and erythrocytes were removed by sedimentation against 6% dextran solution. […] The number of cells were recorded to make a final concentration of 6×10^5 cells/ml.
The endothelial cells plated in 96-well culture plates were incubated with or without compound IICT-TA67 at desired concentrations for 2 h, followed by induction with TNF-α (10 ng/ml) for 6 h. […] The absorbance was read at 490 nm using an automated microplate reader (Model 680, Bio-Rad, USA).

Question: `COc1ccc(C(c2[nH]c3ccccc3c2CC(=O)O)c2[nH]c3ccccc3c2CC(=O)O)cc1Oc1nc(NC2CC2)nc(NC2CC2)n1` [Compound 7, 2,2′-[2,2′-3-(4,6-bis-cyclopropylamino)-1,3,5-triazin-2-yl-oxy-4-methoxy-phenyl]-methylene-bis-(1H-indole-3,3-diyl)-diacetic acid] was tested. Which IC50 did it give?
Answer: 12 mg/L (≈ 17.8 µM)
